Test results reported in patent US10618900B2, “5-aromatic alkynyl substituted benzamide compound and preparation method, pharmaceutical composition, and use thereof” (SHANGHAI INSTITUTE OF MATERIA MEDICA, CHINESE ACADEMY OF …, priority 2015, dated 2020).
Where two headings read alike, the source gives them in different places.

Assays:
[1] = Pharmacokinetic experiment in rats; format: in vivo; conditions: rat; for bioavailability: gavage 20 mg/kg vs intravenous 10 mg/kg, read-out: F (absolute bioavailability)
Experimental: Six healthy rats weighing 150-200 g were randomly divided into […] (n=3). The rats were given 10 mL/kg ZD043 by gavage and intravenous injection. The dose of gavage was 20 mg/kg, and the dose of intravenous administration was 10 mg/kg. The drug was formulated in DMSO/Tween 80/saline (5:5:90, v/v/v). The rats were fasted for 12 h before testing, and drinked water ad libitum. 2 h after administration, all rats ate together.
Gavage administration: 0, 0.25, 0.5, 1.0, 2.0, 4.0, 6.0, 8.0 and 24 h after administration;
Intravenous administration: 0, 5 min, 0.25, 0.5, 1.0, 2.0, 4.0, 6.0, 8.0 and 24 h after administration;
0.3 mL of blood was collected at the above time points from the rat eye vein venous plexus, placed in heparinized test tube and centrifugated at 11000 rpm for 5 min. Plasma was separated and the sample was frozed in −20° C. refrigerator.

[2] = tested on: mice; experiment: Mouse tail suspension experiment; format: in vivo; conditions: 20 mg/kg dose, within 6 min, FIG. 1
From the text: Experimental principle: Tail Suspension Test (TST) is a classic method which can quickly evaluate the efficacy of antidepressant drugs, excitement drugs, and sedative drugs. The principle is to use the status that the mouse give up struggle and enter the unique depression status after the tail was suspended and the attempt to escape was failed.
Experimental method: 20-24 g male mice were selected and the site at 2 cm part from the end of the tail was attached to a horizontal stick, so that the animal entered inverted state, and it's head was about 5 cm from the table, and boards were hung on both sides to separate the animal's sight. The immobility time of the administration group and the control group within 6 min were compared.

[3] = target: mGluR5 (Homo sapiens (Human), UniProt P41594); experiment: In vitro activity test for mGluR5, HDB Fluo-8 calcium fluorescence detection (FLIPR); format: cell-based; conditions: HEK293/mGluR5 cell line
From the text: Experimental instrument: FLIPR Tetra real-time fluorescence imaging analysis system
Experimental method: HDB Fluo-8 calcium fluorescence detection method
Experimental principle: HDB Fluo-8 calcium ion fluorescence detection method is a fast, simple and reliable fluorescence detection method of intracellular calcium concentration changes. The Fluo 8-AM fluorescent dye is an […] derivative of Fluo 8 which can easily penetrate the cell membrane into the cell by culture. The fluorescent dye into the cell will be hydrolyzed by intracellular esterase, the resulting Fluo 8 cannot easily pass through the lipid bimolecular membrane as a polar molecule, and will retain in the cell, and combine with calcium (Ca^2+) to produce fluoresces.
Cells expressing GPCR receptor protein (mGluR5) were first calibrated with a calcium ion sensitive fluorescent probe and then stimulated with the compound. After stimulation, the activation of the receptor lead to the calcium ion mobilization, and the fluorescent probe captures the calcium ion to induce the fluorescence signal. The signal can be read by a fluorescent plate reader. The fluorescent plate reader contains a sampling head for compound addition, thus enabling the change of the fluorescence value of the compound be read in real time. […]

[4] = target: mGluR1 (Homo sapiens (Human), UniProt Q13255); experiment: mGluR5/1 selectivity test, HEK293/mGluR1 cell line, Fluo-8 calcium; format: cell-based
From the text: Experimental material: HEK293/mGluR5 cell line, HEK293/mGluR1 cell line, Fluo-8 calcium ion fluorescent dye, positive control JNJ16259685

Chain of mGluR1 (Q13255 19-1194): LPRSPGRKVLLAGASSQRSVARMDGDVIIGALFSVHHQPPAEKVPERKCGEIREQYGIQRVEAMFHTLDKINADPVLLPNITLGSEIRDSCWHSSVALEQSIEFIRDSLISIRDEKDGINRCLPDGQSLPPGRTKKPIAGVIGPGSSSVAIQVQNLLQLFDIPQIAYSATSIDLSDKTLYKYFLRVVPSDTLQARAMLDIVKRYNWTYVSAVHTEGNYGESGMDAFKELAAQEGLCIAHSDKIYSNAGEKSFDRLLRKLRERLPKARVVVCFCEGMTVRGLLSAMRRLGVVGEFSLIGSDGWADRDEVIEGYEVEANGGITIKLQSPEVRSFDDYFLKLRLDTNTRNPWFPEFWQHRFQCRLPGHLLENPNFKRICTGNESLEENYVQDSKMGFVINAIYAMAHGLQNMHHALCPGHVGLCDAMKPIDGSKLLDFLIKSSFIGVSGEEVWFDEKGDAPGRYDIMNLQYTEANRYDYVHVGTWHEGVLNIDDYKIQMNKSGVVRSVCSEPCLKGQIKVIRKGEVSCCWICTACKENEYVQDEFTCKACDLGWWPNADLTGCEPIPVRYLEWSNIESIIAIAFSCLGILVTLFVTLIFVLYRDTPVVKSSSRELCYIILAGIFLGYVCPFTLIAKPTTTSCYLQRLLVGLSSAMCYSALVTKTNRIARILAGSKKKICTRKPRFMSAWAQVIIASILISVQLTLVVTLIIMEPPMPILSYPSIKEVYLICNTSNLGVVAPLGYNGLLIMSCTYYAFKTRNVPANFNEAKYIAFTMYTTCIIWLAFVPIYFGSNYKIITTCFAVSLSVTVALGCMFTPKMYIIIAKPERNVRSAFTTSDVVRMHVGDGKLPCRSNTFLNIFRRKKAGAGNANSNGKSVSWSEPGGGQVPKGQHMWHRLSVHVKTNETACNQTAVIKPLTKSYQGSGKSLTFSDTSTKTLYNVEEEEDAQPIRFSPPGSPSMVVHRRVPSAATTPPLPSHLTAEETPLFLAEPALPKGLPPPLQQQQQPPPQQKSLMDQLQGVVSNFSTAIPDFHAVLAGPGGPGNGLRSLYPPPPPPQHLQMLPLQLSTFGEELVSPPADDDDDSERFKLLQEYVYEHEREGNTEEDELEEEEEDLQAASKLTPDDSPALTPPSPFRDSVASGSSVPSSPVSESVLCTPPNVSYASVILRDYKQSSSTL
Chain of mGluR5 (P41594 21-1212): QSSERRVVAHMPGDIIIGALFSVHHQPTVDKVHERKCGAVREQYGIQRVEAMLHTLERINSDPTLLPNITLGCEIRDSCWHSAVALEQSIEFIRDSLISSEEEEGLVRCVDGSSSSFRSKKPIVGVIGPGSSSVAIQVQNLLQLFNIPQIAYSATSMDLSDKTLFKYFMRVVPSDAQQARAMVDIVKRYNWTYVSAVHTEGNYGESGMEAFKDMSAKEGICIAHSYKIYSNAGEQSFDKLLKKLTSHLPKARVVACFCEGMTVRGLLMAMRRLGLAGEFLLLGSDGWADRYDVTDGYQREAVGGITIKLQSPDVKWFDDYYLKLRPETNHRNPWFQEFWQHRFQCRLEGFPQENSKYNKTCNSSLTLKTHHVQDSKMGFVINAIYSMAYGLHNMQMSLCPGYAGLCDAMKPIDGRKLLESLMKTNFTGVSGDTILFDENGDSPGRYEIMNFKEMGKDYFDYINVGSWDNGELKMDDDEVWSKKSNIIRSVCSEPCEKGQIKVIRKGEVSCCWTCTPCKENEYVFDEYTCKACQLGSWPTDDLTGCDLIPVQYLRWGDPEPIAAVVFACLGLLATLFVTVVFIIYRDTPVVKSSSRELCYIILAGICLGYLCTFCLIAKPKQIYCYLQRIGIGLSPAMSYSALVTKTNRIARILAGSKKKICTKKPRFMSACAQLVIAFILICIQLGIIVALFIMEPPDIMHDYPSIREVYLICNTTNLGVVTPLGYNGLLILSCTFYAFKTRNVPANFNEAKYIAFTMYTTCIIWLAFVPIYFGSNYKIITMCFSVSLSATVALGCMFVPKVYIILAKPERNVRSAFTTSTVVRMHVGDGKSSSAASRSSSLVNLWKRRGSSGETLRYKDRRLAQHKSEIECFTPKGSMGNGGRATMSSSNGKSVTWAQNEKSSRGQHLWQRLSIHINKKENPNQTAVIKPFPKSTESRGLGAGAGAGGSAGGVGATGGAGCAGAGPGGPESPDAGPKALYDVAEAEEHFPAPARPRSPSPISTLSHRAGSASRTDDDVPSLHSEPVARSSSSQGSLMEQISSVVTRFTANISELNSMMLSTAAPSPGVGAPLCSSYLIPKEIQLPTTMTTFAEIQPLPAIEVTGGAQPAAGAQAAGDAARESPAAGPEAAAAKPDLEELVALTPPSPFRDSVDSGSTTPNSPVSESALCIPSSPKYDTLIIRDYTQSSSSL

Work on Cc1nc(C#Cc2ccc(F)c(C(=O)Nc3cccnc3)c2)cs1 [ZD043] yielded an AUC(0-t) ([1]; plasma, intravenous, vein 10 mg/kg, read-out: AUC0-t) of 66400 ng·h/mL, an AUC(0-inf) ([1]; plasma, iv, vein 10 mg/kg) of 66400 ng·h/mL and a Cmax ([1]; plasma, iv, vein 10 mg/kg) of 75400 ng/mL. It also gave an MRT ([1]; plasma, iv, vein 10 mg/kg) of 37.2 min, a Tmax ([1]; plasma, iv, vein 10 mg/kg) of 4.98 min and an AUC(0-t) ([1]; plasma, iv, vein 10 mg/kg, read-out: AUC0-t) of 66400 ng·h/mL. The bioavailability ([1]; plasma, oral) was 31.6%, the AUC(0-inf) ([1]; plasma, po, gavage 20 mg/kg) was 10500 ng·h/mL and the Cmax ([1]; plasma, po, gavage 20 mg/kg) was 7120 ng/mL. It also gave an MRT ([1]; plasma, po, gavage 20 mg/kg) of 63.6 min, a Tmax ([1]; plasma, po, gavage 20 mg/kg) of 15 min and a bioavailability ([1]; plasma, po) of 31.6%. It also gave an AUC(0-t) ([1]; plasma, po, gavage 20 mg/kg, read-out: AUC0-t) of 10500 ng·h/mL, an AUC(0-t) ([1]; gavage 20 mg/kg) of 10491.2 ng·h/mL and a t1/2 ([1]; gavage 20 mg/kg) of 78 min. For the same compound, the half-life ([1]; plasma, iv, 10 mg/kg, vein 10 mg/kg) was 25.8 min, the half-life ([1]; plasma, po, 20 mg/kg, gavage 20 mg/kg) was 78.1 min and the “immobility time in the mouse tail suspension test” value [2] was “significantly reduced”. The IC50 [3] was 5.6 nM, the IC50 ([4]; HEK293/mGluR1 cell line) was > 100000 nM and the mGluR5/mGluR1 ([4]; selectivity ratio of IC50 values) was >17854.
